Patent US20250368648A1, “MULTI-CYCLIC IRAK AND FLT3 INHIBITING COMPOUNDS AND USES THEREOF” (CHILDREN'S HOSPITAL MEDICAL CENTER, priority 2022, published 2025)

What was measured:
Details in all cases: no ATP
IRAK1 = molecular target: T1, IRAK1 (Homo sapiens, UniProt P51617); assay: DiscoverX KINOMEscan competition binding, IRAK1
T1 construct: purchased RBC (Reaction Biology) HotSpot assay
Description: (§1) Kinase binding data were obtained for various exemplary compounds prepared according to Examples 2-15 using the DiscoverX KINOMEscan® active site-directed competition binding site-directed assay protocol described below. […] As a result, the data report thermodynamic interaction affinities (Kd values), rather than IC50 values that are dependent on ATP concentrations. The assay uses a DNA-tagged version of the protein kinase, and an immobilized ligand bound to a solid support. Compounds that directly or indirectly prevent kinase binding to the immobilized ligand reduce the amount of kinase captured on the solid support, which is detected using an ultra-sensitive qPCR method. Affinity constants reported from the assay have been reported to be independent of the immobilized ligand used that is coupled to the solid support (See supplemental information in Fabian, M. A. et. al., (2005) Nat. […] Wodicka, L. […] Biol. 17, 1241-1249.) Kinase-tagged T7 phage strains were prepared in an E. coli host derived from the BL21 strain. E. coli were grown to log-phase and infected with T7 phage and incubated with shaking at 32° C. until lysis. […] Kds were determined using an 11-point 3-fold compound dilution series with three DMSO control points. […] The kinase concentration in the eluates was measured by qPCR. Binding constants (Kds) were calculated with a standard dose-response curve using the Hill equation. […]

FLT3 = molecular target: T2, FLT3 (Homo sapiens, UniProt P36888); assay: DiscoverX KINOMEscan competition binding, FLT3; set-up: purchased RBC (Reaction Biology) HotSpot assay
T2 sequence (P36888 27-993): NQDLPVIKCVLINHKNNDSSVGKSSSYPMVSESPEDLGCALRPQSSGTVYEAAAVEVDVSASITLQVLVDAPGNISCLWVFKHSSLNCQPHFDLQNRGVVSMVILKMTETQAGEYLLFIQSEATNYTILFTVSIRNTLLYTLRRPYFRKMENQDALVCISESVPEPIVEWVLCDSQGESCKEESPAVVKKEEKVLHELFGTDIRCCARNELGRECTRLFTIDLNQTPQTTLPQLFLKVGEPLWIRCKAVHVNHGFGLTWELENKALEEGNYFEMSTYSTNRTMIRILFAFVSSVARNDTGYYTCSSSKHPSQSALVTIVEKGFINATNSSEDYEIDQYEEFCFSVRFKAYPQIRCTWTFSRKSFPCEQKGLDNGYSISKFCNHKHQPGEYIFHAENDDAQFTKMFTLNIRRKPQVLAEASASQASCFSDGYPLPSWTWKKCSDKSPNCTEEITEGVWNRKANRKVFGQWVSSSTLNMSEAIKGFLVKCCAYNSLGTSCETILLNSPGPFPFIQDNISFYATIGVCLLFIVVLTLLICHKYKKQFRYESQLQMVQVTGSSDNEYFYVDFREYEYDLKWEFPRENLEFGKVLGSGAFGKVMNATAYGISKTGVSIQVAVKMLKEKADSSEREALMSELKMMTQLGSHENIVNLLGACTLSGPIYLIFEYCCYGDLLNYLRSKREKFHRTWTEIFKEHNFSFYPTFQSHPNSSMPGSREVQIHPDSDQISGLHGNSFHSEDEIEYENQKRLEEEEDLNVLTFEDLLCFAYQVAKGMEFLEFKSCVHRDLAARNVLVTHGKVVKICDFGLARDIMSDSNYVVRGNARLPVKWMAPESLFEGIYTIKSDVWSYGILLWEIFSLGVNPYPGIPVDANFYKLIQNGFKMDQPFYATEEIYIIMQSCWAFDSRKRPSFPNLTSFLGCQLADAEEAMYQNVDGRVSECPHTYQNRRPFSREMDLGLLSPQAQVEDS
Description: as §1

IRAK4 = molecular target: T3, IRAK4 (Homo sapiens, UniProt Q9NWZ3); assay: DiscoverX KINOMEscan competition binding, IRAK4; set-up: purchased RBC (Reaction Biology) HotSpot assay
T3 sequence (Q9NWZ3 1-460): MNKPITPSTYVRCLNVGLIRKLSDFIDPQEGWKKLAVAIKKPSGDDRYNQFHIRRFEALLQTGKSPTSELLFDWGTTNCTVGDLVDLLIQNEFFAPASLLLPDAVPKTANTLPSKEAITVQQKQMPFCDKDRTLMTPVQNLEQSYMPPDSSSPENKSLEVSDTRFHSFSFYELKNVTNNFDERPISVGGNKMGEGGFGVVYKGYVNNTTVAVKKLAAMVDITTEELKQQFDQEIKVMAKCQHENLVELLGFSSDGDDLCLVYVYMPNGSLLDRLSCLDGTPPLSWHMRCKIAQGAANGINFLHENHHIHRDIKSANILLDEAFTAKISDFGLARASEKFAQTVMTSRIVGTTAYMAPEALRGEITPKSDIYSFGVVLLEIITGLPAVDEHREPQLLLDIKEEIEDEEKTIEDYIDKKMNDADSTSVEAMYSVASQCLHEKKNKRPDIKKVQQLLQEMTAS
Description: as §1

T1 sequence (P51617 whole entry): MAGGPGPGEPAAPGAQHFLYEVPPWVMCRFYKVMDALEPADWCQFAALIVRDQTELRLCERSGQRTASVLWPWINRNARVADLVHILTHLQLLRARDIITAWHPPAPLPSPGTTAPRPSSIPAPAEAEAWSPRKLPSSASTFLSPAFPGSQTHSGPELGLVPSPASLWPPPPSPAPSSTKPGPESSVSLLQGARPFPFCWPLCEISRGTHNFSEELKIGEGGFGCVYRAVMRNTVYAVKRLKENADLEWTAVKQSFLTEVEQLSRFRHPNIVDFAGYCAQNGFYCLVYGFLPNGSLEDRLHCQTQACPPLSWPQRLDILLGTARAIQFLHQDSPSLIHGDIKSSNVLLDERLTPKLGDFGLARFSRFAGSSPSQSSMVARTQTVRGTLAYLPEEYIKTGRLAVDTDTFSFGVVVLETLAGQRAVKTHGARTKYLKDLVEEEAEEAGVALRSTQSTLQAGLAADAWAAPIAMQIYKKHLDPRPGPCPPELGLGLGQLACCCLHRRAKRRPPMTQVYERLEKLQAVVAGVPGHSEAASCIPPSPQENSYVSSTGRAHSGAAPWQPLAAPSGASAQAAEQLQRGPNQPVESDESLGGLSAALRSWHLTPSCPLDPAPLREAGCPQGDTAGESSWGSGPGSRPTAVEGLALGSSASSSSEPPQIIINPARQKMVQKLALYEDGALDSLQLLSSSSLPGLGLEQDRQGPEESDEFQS

COc1cc2ncc(-c3nc(N[C@H]4CNCC[C@@H]4F)c(F)cc3F)n2nc1C1CCC1 [Compound 15a, 6-(6-cyclobutyl-7-methoxyimidazo[1,2-b]pyridazin-3-yl)-3,5-difluoro-N-((3S,4S)-4-fluoropiperidin-3-yl)pyridin-2-amine]
Kd (IRAK1): 1.4 nM | Kd (FLT3): < 0.17 nM | Kd (IRAK4): 0.32 nM
